What was measured:
PC-3 = assay: Antiproliferative activity against human PC-3 cells after 72 hrs by MTT assay; type: functional, cell-based; conditions: PC-3, 72 h
Dihydrofolate reductase = target: T1, Dihydrofolate reductase (Homo sapiens, UniProt P00374); assay: Inhibition of recombinant human DHFR expressed in Escherichia coli incubated for 15 mins and measured by ELISA
T1 sequence (P00374 whole entry): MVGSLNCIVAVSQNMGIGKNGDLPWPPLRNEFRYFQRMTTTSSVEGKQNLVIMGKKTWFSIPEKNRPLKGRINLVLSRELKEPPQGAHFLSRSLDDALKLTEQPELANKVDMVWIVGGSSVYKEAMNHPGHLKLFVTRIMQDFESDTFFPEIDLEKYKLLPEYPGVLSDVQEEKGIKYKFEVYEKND

[1] = target: Receptor tyrosine-protein kinase erbB-2 (Homo sapiens, UniProt P04626); assay: Inhibition of recombinant human HER2 incubated for 40 to 45 mins and measured after 15 mins by Kinase-Glo Max assay
Chain of Receptor tyrosine-protein kinase erbB-2 (P04626 whole entry): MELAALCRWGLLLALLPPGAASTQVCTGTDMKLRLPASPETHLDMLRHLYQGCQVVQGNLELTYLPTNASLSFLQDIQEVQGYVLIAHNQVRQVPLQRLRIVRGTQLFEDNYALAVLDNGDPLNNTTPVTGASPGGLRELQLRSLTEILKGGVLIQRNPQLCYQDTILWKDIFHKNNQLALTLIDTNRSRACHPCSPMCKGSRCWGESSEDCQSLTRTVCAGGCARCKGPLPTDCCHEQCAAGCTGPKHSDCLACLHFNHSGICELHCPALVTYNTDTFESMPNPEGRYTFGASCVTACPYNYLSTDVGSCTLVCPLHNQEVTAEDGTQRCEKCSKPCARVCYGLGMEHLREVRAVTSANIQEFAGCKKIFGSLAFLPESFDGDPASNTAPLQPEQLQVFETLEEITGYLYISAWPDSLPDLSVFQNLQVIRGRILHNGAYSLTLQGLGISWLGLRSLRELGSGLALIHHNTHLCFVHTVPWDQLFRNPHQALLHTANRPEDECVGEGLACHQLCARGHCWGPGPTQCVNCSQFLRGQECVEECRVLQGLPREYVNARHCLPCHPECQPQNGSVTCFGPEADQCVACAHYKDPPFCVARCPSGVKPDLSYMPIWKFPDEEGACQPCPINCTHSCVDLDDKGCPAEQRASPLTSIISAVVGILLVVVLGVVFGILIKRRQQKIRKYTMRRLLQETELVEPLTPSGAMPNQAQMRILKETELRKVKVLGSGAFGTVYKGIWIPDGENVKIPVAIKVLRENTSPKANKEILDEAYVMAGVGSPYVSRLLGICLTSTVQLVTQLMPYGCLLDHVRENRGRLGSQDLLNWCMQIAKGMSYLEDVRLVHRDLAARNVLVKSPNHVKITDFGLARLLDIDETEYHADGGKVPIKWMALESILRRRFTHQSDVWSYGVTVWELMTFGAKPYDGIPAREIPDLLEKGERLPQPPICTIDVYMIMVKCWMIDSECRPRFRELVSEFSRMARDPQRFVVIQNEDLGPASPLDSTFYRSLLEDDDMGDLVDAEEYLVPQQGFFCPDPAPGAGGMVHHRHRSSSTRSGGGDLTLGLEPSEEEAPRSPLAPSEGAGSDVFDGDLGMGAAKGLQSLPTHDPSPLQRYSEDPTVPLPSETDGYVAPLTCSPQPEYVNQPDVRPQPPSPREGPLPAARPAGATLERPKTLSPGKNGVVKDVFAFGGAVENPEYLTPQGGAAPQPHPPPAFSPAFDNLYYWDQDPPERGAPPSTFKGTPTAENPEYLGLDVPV

WI-38 = assay: Antiproliferative activity against human WI-38 cells after 72 hrs by MTT assay; type: functional, cell-based; conditions: WI-38, 72 h
HepG2 = assay: cells; conditions: Homo sapiens, HepG2, 72 h
[2] = target: Epidermal growth factor receptor (Homo sapiens, UniProt P00533)
Chain of Epidermal growth factor receptor (P00533 whole entry): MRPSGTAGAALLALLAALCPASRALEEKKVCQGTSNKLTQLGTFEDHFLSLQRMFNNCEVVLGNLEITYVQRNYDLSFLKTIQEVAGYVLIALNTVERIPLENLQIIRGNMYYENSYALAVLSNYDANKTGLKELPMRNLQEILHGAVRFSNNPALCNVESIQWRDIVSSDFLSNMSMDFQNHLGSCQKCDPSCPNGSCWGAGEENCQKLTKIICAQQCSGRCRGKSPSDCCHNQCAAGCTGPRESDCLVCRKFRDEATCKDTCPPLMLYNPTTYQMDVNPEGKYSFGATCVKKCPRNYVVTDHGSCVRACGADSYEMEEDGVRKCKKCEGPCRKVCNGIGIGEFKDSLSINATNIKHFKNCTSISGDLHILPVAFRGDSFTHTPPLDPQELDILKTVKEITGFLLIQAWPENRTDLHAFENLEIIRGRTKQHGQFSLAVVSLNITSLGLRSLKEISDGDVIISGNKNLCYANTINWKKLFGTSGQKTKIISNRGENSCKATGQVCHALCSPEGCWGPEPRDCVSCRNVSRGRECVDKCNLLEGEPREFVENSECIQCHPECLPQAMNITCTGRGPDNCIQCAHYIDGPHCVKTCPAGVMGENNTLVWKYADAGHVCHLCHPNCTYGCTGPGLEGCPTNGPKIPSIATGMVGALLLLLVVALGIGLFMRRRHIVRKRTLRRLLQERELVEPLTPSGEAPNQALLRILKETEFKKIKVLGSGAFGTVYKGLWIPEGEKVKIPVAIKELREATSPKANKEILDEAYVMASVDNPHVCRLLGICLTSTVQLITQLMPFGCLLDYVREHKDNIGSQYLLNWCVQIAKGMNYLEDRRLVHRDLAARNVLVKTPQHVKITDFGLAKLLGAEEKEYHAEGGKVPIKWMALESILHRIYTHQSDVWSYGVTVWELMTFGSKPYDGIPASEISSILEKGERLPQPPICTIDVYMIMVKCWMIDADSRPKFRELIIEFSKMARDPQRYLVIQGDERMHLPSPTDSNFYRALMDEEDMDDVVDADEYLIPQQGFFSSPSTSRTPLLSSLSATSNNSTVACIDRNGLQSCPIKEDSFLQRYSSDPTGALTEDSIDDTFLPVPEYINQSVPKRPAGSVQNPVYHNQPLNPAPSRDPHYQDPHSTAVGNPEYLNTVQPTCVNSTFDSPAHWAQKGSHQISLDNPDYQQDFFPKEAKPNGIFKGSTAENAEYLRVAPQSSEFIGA
Description: Inhibition of recombinant human EGFR incubated for 40 to 45 mins and measured after 15 mins by Kinase-Glo Max assay

HeLa = assay: Antiproliferative activity against human HeLa cells after 72 hrs by MTT assay; type: functional, cell-based
MCF7 = assay: cells; conditions: Homo sapiens, MCF7, 72 h
HCT-116 = assay: cells; conditions: Homo sapiens, HCT-116, 72 h
Description: Antiproliferative activity against human HCT-116 cells after 72 hrs by MTT assay

| SMILES | IC50 (PC-3) [µM] | IC50 (Dihydrofolate reductase) [µM] | IC50 [1] [µM] | IC50 (WI-38) [µM] | IC50 (HepG2) [µM] | IC50 [2] [µM] | IC50 (HeLa) [µM] | IC50 (MCF7) [µM] | IC50 (HCT-116) [µM] |
| --- | --- | --- | --- | --- | --- | --- | --- | --- | --- |
| CNC(=O)c1cc(Oc2ccc(NC(=O)Nc3ccc(Cl)c(C(F)(F)F)c3)cc2)ccn1 [SORAFENIB] | 11.5 | – | – | – | – | – | – | – | – |
| NNC(=O)c1csc2nc(CN3CCOCC3)c(-c3ccc(Br)cc3)n12 | 21.9 | 3.28 | 0.121 | 49.8 | 5.81 | 0.419 | 3.65 | 6.18 | 17.9 |
| CC(=O)NNC(=O)c1csc2nc(CN3CCOCC3)c(-c3ccc(Br)cc3)n12 | 29.3 | – | – | – | 14.1 | – | 13.6 | 19.1 | 22 |
| O=C(NCCc1ccccc1)c1csc(NC(=S)Nc2ccc(Cl)cc2)n1 | 33.8 | – | – | – | 11.8 | – | 30.4 | 17.2 | 29.7 |
| CCOC(=O)c1csc2nc(CN3CCN(C)CC3)c(-c3ccc(C)cc3)n12 | 65 | – | – | – | 53.6 | – | 43.9 | 58.3 | 61 |
| CCOC(=O)c1csc2nc(CN3CCOCC3)c(-c3ccc(OC)cc3)n12 | 22.6 | – | – | – | 19.8 | – | 16.4 | 13.9 | 25.8 |
| CCOC(=O)c1csc2nc(CN3CCOCC3)c(-c3ccc(C)cc3)n12 | 47.1 | – | – | – | 39 | – | 24.8 | 43.6 | 32.6 |
| CCC(=O)NNC(=O)c1csc2ncc(-c3ccc(C)cc3)n12 | 18.5 | 5.67 | 0.244 | 67.2 | 7.34 | 0.45 | 13 | 5.19 | 9.23 |
| CCCC(=O)NNC(=O)c1csc2nc(CN3CCOCC3)c(-c3ccc(Br)cc3)n12 | 52.9 | – | – | – | 38.4 | – | 29.2 | 35.9 | 46.8 |
| CCOC(=O)c1csc2nc(CN3CCN(Cc4ccccc4)CC3)c(-c3ccc(Br)cc3)n12 | 56.4 | – | – | – | 47.3 | – | 29.5 | 51.4 | 37.2 |
| Cc1ccc(-c2c(CN3CCOCC3)nc3scc(C(=O)NN)n23)cc1 | 11.2 | 0.123 | 0.357 | 89.6 | 9.67 | 0.246 | 6.9 | 8.46 | 13.2 |
| Cc1ccc(-c2c(CN3CCCCC3)nc3scc(C(=O)O)n23)cc1 | 16.6 | 0.907 | 0.146 | > 100 | 10.8 | 0.18 | 7.63 | 8.29 | 13.8 |
| COc1ccc(NC(=S)Nc2nc(C(=O)NCc3ccccc3)cs2)cc1 | 39.3 | – | – | – | 28.1 | – | 22.9 | 24.6 | 18.2 |
| CCCC(=O)NNC(=O)c1csc2ncc(-c3ccc(C)cc3)n12 | 53.5 | – | – | – | 26.8 | – | 45.6 | 41.7 | 34.5 |
| CCC(=O)NNC(=O)c1csc2ncc(-c3ccc(Br)cc3)n12 | 43.7 | – | – | – | 19.2 | – | 23.1 | 15 | 25.3 |
| CCOC(=O)c1csc2nc(CN3CCOCC3)c(-c3ccc(Br)cc3)n12 | 35.2 | – | – | – | 32.5 | – | 20.8 | 24.6 | 28.5 |
| CCOC(=O)c1csc2nc(CN3CCN(Cc4ccccc4)CC3)c(-c3ccc(C)cc3)n12 | > 100 | – | – | – | 88.2 | – | 38.8 | 29.1 | 47.8 |
| CC(=O)NNC(=O)c1csc2nc(CN3CCOCC3)c(-c3ccc(C)cc3)n12 | 61.3 | – | – | – | 43 | – | 35.3 | 50.8 | 54.6 |
| COc1ccc(-c2c(CN3CCOCC3)nc3scc(C(=O)NNC(C)=O)n23)cc1 | 34.8 | – | – | – | 23.7 | – | 18.9 | 11.3 | 29.9 |
| COc1ccc(NC(=S)Nc2nc(C(=O)NCCCc3ccccc3)cs2)cc1 | 74.5 | – | – | – | 71.3 | – | 57.5 | 63.8 | 44.8 |

| SMILES | IC50 (PC-3) [µM] | IC50 (Dihydrofolate reductase) [µM] | IC50 [1] [µM] | IC50 (WI-38) [µM] | IC50 (HepG2) [µM] | IC50 [2] [µM] | IC50 (HeLa) [µM] | IC50 (MCF7) [µM] | IC50 (HCT-116) [µM] |
| --- | --- | --- | --- | --- | --- | --- | --- | --- | --- |
| COc1ccc(NC(=S)Nc2nc(C(=O)NCCc3ccccc3)cs2)cc1 | 25.1 | – | – | – | 19.5 | – | 14.8 | 10.6 | 8.13 |
| CCC(=O)NNC(=O)c1csc2nc(CN3CCOCC3)c(-c3ccc(Br)cc3)n12 | 42.7 | – | – | – | 31.2 | – | 27 | 25.4 | 34.1 |
| CCOC(=O)c1csc2nc(CN3CCN(C)CC3)c(-c3ccc(OC)cc3)n12 | 69.4 | – | – | – | 68.4 | – | 35.1 | 32.8 | 44.6 |
| CCC(=O)NNC(=O)c1csc2nc(CN3CCOCC3)c(-c3ccc(C)cc3)n12 | 79.1 | – | – | – | 69.2 | – | 48.4 | 58.2 | 64.5 |
| COc1ccc(-c2cnc3scc(C(=O)NNC(C)=O)n23)cc1 | 28.3 | – | – | – | 11.8 | – | 17.9 | 8.36 | 17 |
| CC(=O)NNC(=O)c1csc2ncc(-c3ccc(C)cc3)n12 | 92.7 | – | – | – | 63.6 | – | 74.2 | 57.3 | 71.8 |
| CCCC(=O)NNC(=O)c1csc2ncc(-c3ccc(Br)cc3)n12 | 58.5 | – | – | – | 33.6 | – | 31.9 | 27.5 | 50.3 |
| CN(Cc1cnc2nc(N)nc(N)c2n1)c1ccc(C(=O)N[C@@H](CCC(=O)O)C(=O)O)cc1 [METHOTREXATE] | 28.8 | – | – | – | 21.9 | – | 13.7 | 25.3 | 9.25 |
| CCC(=O)NNC(=O)c1csc2ncc(-c3ccc(OC)cc3)n12 | 79.8 | – | – | – | 45.8 | – | 56.2 | 53.2 | 64.3 |
| CCCC(=O)NNC(=O)c1csc2ncc(-c3ccc(OC)cc3)n12 | 66.4 | – | – | – | 38 | – | 43.3 | 32.8 | 59.1 |
| O=C(NCc1ccccc1)c1csc(NC(=S)Nc2ccc(Cl)cc2)n1 | 51.3 | – | – | – | 40.3 | – | 76 | 56.5 | 62.1 |
| O=C(NCCCc1ccccc1)c1csc(NC(=S)Nc2ccc(Cl)cc2)n1 | 42.4 | – | – | – | 53.1 | – | 32.2 | 45.1 | 36.6 |
| CCCC(=O)NNC(=O)c1csc2nc(CN3CCOCC3)c(-c3ccc(OC)cc3)n12 | 88.5 | – | – | – | 81.2 | – | 53.7 | 72.4 | 68.7 |
| CCCC(=O)NNC(=O)c1csc2nc(CN3CCOCC3)c(-c3ccc(C)cc3)n12 | > 100 | – | – | – | 92.4 | – | 67.9 | 89.3 | 77.5 |
| O=C(O)c1csc2nc(CN3CCCCC3)c(-c3ccc(Br)cc3)n12 | > 100 | – | – | – | > 100 | – | 76.6 | 87.5 | > 100 |
| COc1ccc(-c2c(CN3CCCCC3)nc3scc(C(=O)O)n23)cc1 | 73.1 | – | – | – | 75 | – | 47.4 | 62.9 | 84.6 |
| CCOC(=O)c1csc2nc(CN3CCN(Cc4ccccc4)CC3)c(-c3ccc(OC)cc3)n12 | 29.4 | – | – | – | 26.4 | – | 9.94 | 17.1 | 19.6 |
| CCC(=O)NNC(=O)c1csc2nc(CN3CCOCC3)c(-c3ccc(OC)cc3)n12 | 73.9 | – | – | – | 55.9 | – | 44.2 | 64.1 | 59.3 |
| CCOC(=O)c1csc2nc(CN3CCN(C)CC3)c(-c3ccc(Br)cc3)n12 | 85 | – | – | – | 82.7 | – | 55.4 | 68.5 | 93.6 |

Source: ChEMBL document CHEMBL5108025, “New thiazole-based derivatives as EGFR/HER2 and DHFR inhibitors: Synthesis, molecular modeling simulations and anticancer activity” (Eur J Med Chem, 2022)
